Measured values published in patent US20080200404A1, “Novel Antimalarial 9A-Carbamoyl-Aminoalkyl and 9A-Thiocarbamoyl-Aminoalkyl Azalides” (priority 2005, published 2008).
Converted amounts (≈) assume the structure as drawn. Like-named read-outs stand apart in the source and are kept apart here.

Key:
Type in all cases: cell-based
[1] = test system: Plasmodium falciparum clone CDC/Sierra Leone I (D-6); assay: In vitro antimalarial [3H]-hypoxanthine incorporation serial dilution assay, D6; conditions: Plasmodium falciparum, D6, 72 h, P. falciparum D6, 72 hours exposure
How it was run: (§1)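 IC50 came from logistic fitting of eleven two-fold compound dilutions, read as [3H]-hypoxanthine uptake into parasite DNA relative to untreated infected wells after 72 h. Parasites were grown in A+ human erythrocytes (6%) in RPMI-1640 with plasma or ALBUMAX at 37° C, 5% CO2, 5% O2.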

[2] = test system: Plasmodium falciparum clone CDC/Indochina III (W-2); assay: In vitro antimalarial [3H]-hypoxanthine incorporation serial dilution assay, W2; conditions: Plasmodium falciparum; P. falciparum W2, 72 hours exposure
How it was run: as §1

[3] = test system: Plasmodium falciparum TM91C235; assay: In vitro antimalarial [3H]-hypoxanthine incorporation assay, TM91C235; conditions: Plasmodium falciparum; P. falciparum TM91C235 (multiple drug resistant isolate), 72 hours exposure
How it was run: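 Growth was read by [3H]-hypoxanthine incorporation after 72 h total incubation, as CPM normalized to the mean of untreated infected controls. Erythrocytic-stage TM91C235 (0.4% parasitemia, 1% hematocrit, ALBUMAX medium without folate or PABA, 5% O2/5% CO2, 37° C) was first exposed 48 h to compound at three levels, 25–25,000 ng/ml, in duplicate.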

[4] = compared with azithromycin, read-out: IC50 D6 (class symbol)

Row | SMILES | IC50 ([1]; read-out: IC50 D6) [µg/mL] | IC50 [2] [µg/mL] | IC50 [3] [µg/mL] | IC50 [1, 4] [µg/mL]
1 | CC[C@H]1OC(=O)[C@H](C)[C@@H](O[C@H]2C[C@@](C)(OC)[C@@H](O)[C@H](C)O2)[C@H](C)[C@@H](O[C@@H]2O[C@H](C)C[C@H](N(C)C)[C@H]2O)[C@](C)(O)C[C@@H](C)CN(CCCNC(=S)Nc2ccc(C)cc2)[C@H](C)[C@@H](O)[C@]1(C)O [Example 97] | 0.311 (≈ 0.33 µM) | 0.0671 (≈ 0.0713 µM) | 0.154 (≈ 0.164 µM) | 
2 | CC[C@H]1OC(=O)[C@H](C)[C@@H](O[C@H]2C[C@@](C)(OC)[C@@H](O)[C@H](C)O2)[C@H](C)[C@@H](O[C@@H]2O[C@H](C)C[C@H](N(C)C)[C@H]2O)[C@](C)(O)C[C@@H](C)CN(CCCNC(=S)Nc2ccc(C3CC4CCC3C4)cc2)[C@H](C)[C@@H](O)[C@]1(C)O.O=CO (stereo partly drawn) [Example 110] | 0.247 | 0.0461 | 0.111 | 
3 | CC[C@H]1OC(=O)[C@H](C)[C@@H](O[C@H]2C[C@@](C)(OC)[C@@H](O)[C@H](C)O2)[C@H](C)[C@@H](O[C@@H]2O[C@H](C)C[C@H](N(C)C)[C@H]2O)[C@](C)(O)C[C@@H](C)CN(CCCNC(=O)Nc2ccc(C#N)cc2)[C@H](C)[C@@H](O)[C@]1(C)O [Example 59] | 0.362 (≈ 0.386 µM) | 0.092 (≈ 0.0983 µM) | 0.193 (≈ 0.206 µM) | 
4 | CC[C@H]1OC(=O)[C@H](C)[C@@H](O[C@H]2C[C@@](C)(OC)[C@@H](O)[C@H](C)O2)[C@H](C)[C@@H](O[C@@H]2O[C@H](C)C[C@H](N(C)C)[C@H]2O)[C@](C)(O)C[C@@H](C)CN(CCCNC(=O)NC2CCCCC2)[C@H](C)[C@@H](O)[C@]1(C)O [Example 58] |  | 0.169 (≈ 0.185 µM) | 0.377 (≈ 0.411 µM) | > 0.797
5 | CC[C@H]1OC(=O)[C@H](C)[C@@H](O[C@H]2C[C@@](C)(OC)[C@@H](O)[C@H](C)O2)[C@H](C)[C@@H](O[C@@H]2O[C@H](C)C[C@H](N(C)C)[C@H]2O)[C@](C)(O)C[C@@H](C)CN(CCCNC(=O)NC(C)(C)C)[C@H](C)[C@@H](O)[C@]1(C)O [Example 53] |  | 0.366 (≈ 0.41 µM) | 0.713 (≈ 0.8 µM) | > 0.797
6 | CCCCNC(=S)NCCCN1C[C@H](C)C[C@@](C)(O)[C@H](O[C@@H]2O[C@H](C)C[C@H](N(C)C)[C@H]2O)[C@@H](C)[C@H](O[C@H]2C[C@@](C)(OC)[C@@H](O)[C@H](C)O2)[C@@H](C)C(=O)O[C@H](CC)[C@@](C)(O)[C@H](O)[C@H]1C.O=CO [Example 96] | 0.625 | 0.179 | 0.364 | 
7 | CCc1ccccc1NC(=S)NCCCN1C[C@H](C)C[C@@](C)(O)[C@H](O[C@@H]2O[C@H](C)C[C@H](N(C)C)[C@H]2O)[C@@H](C)[C@H](O[C@H]2C[C@@](C)(OC)[C@@H](O)[C@H](C)O2)[C@@H](C)C(=O)O[C@H](CC)[C@@](C)(O)[C@H](O)[C@H]1C [Example 101] | 0.425 (≈ 0.445 µM) | 0.0919 (≈ 0.0962 µM) | 0.24 (≈ 0.252 µM) | 
8 | CC[C@H]1OC(=O)[C@H](C)[C@@H](O[C@H]2C[C@@](C)(OC)[C@@H](O)[C@H](C)O2)[C@H](C)[C@@H](O[C@@H]2O[C@H](C)C[C@H](N(C)C)[C@H]2O)[C@](C)(O)C[C@@H](C)CN(CCCNC(=S)NC(c2ccccc2)(c2ccccc2)c2ccccc2)[C@H](C)[C@@H](O)[C@]1(C)O.O=CO [Example 125] | 0.142 | 0.0422 | 0.0364 | 
9 | CC[C@H]1OC(=O)[C@H](C)[C@@H](O[C@H]2C[C@@](C)(OC)[C@@H](O)[C@H](C)O2)[C@H](C)[C@@H](O[C@@H]2O[C@H](C)C[C@H](N(C)C)[C@H]2O)[C@](C)(O)C[C@@H](C)CN(CCCNC(=S)Nc2ccc(C#N)cc2)[C@H](C)[C@@H](O)[C@]1(C)O [Example 98] | 0.126 (≈ 0.132 µM) | 0.0476 (≈ 0.05 µM) | 0.0745 (≈ 0.0782 µM) | 
10 | CC[C@H]1OC(=O)[C@H](C)[C@@H](O[C@H]2C[C@@](C)(OC)[C@@H](O)[C@H](C)O2)[C@H](C)[C@@H](O[C@@H]2O[C@H](C)C[C@H](N(C)C)[C@H]2O)[C@](C)(O)C[C@@H](C)CN(CCCNC(=O)Nc2ccc3c(c2)OCCCO3)[C@H](C)[C@@H](O)[C@]1(C)O.O=CO [Example 84] | 0.0289 | 0.042 | 0.0618 | 
11 | CC[C@H]1OC(=O)[C@H](C)[C@@H](O[C@H]2C[C@@](C)(OC)[C@@H](O)[C@H](C)O2)[C@H](C)[C@@H](O[C@@H]2O[C@H](C)C[C@H](N(C)C)[C@H]2O)[C@](C)(O)C[C@@H](C)CN(CCCNC(=S)Nc2ccccc2F)[C@H](C)[C@@H](O)[C@]1(C)O.O=CO [Example 136] | 0.978 | 0.396 | 0.121 | 
